Measured values: ChEMBL document CHEMBL3045862, “PRE-CLINICAL AND CLINICAL PHARMACOKINETICS OF THE DIASTEREOMERS OF ARTEETHER, A POTENT ANTIMALARIAL” (Med Chem Res, 2004)

Columns and labels:
[1] = system: Rattus norvegicus; experiment: Dose normalized AUC in Rattus norvegicus Sprague-Dawley (rat) at 9 mg/kg, po; format: ADME, organism-based; parameters: dose 9 mg/kg, route oral; conditions: in vivo
[2] = Elimination half life in Rattus norvegicus Sprague-Dawley (rat) at 17.5 mg/kg, po; format: ADME, organism-based; parameters: dose 17.5 mg/kg, route oral; conditions: in vivo, read-out: beta t1/2 (converted)
[3] = system: Rattus norvegicus; experiment: Dose normalized AUC in Rattus norvegicus Sprague-Dawley (rat) at 2 mg/kg, iv; format: ADME, organism-based; parameters: dose 2 mg/kg, route intravenous; conditions: in vivo
[4] = system: Rattus norvegicus; experiment: Volume of distribution in Rattus norvegicus Sprague-Dawley (rat) at 9 mg/kg, administered intramuscularly; format: ADME, organism-based; parameters: dose 9 mg/kg, route intramuscular; conditions: in vivo, im
[5] = system: Rattus norvegicus; experiment: Dose normalized AUC in Rattus norvegicus Sprague-Dawley (rat) at 30 mg/kg, po; format: ADME, organism-based; parameters: dose 30 mg/kg, route oral; conditions: in vivo
[6] = system: Rhesus monkey; experiment: Clearance in Macaca mulatta (Rhesus monkey) at 7.5 mg/kg, administered intramuscularly; format: ADME, organism-based; parameters: dose 7.5 mg/kg, route intramuscular; conditions: in vivo, im
[7] = Mean residence time in Homo sapiens (human) at 150 mg; format: ADME, organism-based; conditions: in vivo
[8] = system: Rattus norvegicus; experiment: Dose normalized AUC in Rattus norvegicus Sprague-Dawley (rat) at 9 mg/kg, administered intramuscularly; format: ADME, organism-based; parameters: dose 9 mg/kg, route intramuscular; conditions: in vivo, im
[9] = system: Rattus norvegicus; experiment: Clearance in Rattus norvegicus Sprague-Dawley (rat) at 30 mg/kg, administered intramuscularly; format: ADME, organism-based; parameters: dose 30 mg/kg, route intramuscular; conditions: in vivo, im
[10] = Tmax in Rattus norvegicus Sprague-Dawley (rat) at 17.5 mg/kg, administered intramuscularly; format: ADME, organism-based; parameters: dose 17.5 mg/kg, route intramuscular; conditions: in vivo, im
[11] = Mean residence time in Macaca mulatta (Rhesus monkey) at 4 mg/kg, iv; format: ADME, organism-based; parameters: dose 4 mg/kg, route intravenous; conditions: in vivo
[12] = system: Rattus norvegicus; experiment: Dose normalized AUC in Rattus norvegicus Sprague-Dawley (rat) at 17.5 mg/kg, administered intramuscularly; format: ADME, organism-based; parameters: dose 17.5 mg/kg, route intramuscular; conditions: in vivo, im
[13] = system: Rattus norvegicus; experiment: Dose normalized AUC in Rattus norvegicus Sprague-Dawley (rat) at 17.5 mg/kg, po; format: ADME, organism-based; parameters: dose 17.5 mg/kg, route oral; conditions: in vivo
[14] = Mean residence time in Rattus norvegicus Sprague-Dawley (rat) at 17.5 mg/kg, po; format: ADME, organism-based; parameters: dose 17.5 mg/kg, route oral; conditions: in vivo
[15] = Cmax in Macaca mulatta (Rhesus monkey) at 7.5 mg/kg, administered intramuscularly; format: ADME, organism-based; parameters: dose 7.5 mg/kg, route intramuscular; conditions: in vivo, im
[16] = system: Rhesus monkey; experiment: AUC (0 to infinity) in Macaca mulatta (Rhesus monkey) at 4 mg/kg, iv; format: ADME, organism-based, Plasma; parameters: time infinity, dose 4 mg/kg, route intravenous; conditions: in vivo
[17] = system: Rattus norvegicus; experiment: Clearance in Rattus norvegicus Sprague-Dawley (rat) at 2 mg/kg, iv; format: ADME, organism-based; parameters: dose 2 mg/kg, route intravenous; conditions: in vivo
[18] = Clearance in Homo sapiens (human) at 150 mg; format: ADME, organism-based; conditions: in vivo
[19] = AUC (0 to infinity) in Homo sapiens (human) at 150 mg; format: ADME, organism-based; parameters: dose 150 mg, time infinity; conditions: plasma
[20] = system: Rhesus monkey; experiment: Dose normalized AUC in Macaca mulatta (Rhesus monkey) at 50 mg/kg, po; format: ADME, organism-based; parameters: dose 50 mg/kg, route oral; conditions: in vivo
[21] = system: Rattus norvegicus; experiment: AUC (0 to infinity) in Rattus norvegicus Sprague-Dawley (rat) at 17.5 mg/kg, administered intramuscularly; format: ADME, organism-based, Plasma; parameters: dose 17.5 mg/kg, route intramuscular, time infinity; conditions: in vivo, im
[22] = Elimination half life in Rattus norvegicus Sprague-Dawley (rat) at 9 mg/kg, administered intramuscularly; format: ADME, organism-based; parameters: dose 9 mg/kg, route intramuscular; conditions: in vivo, im, read-out: beta t1/2 (converted)
[23] = Mean residence time in Rattus norvegicus Sprague-Dawley (rat) at 30 mg/kg, po; format: ADME, organism-based; parameters: dose 30 mg/kg, route oral; conditions: in vivo
[24] = system: Rattus norvegicus; experiment: Clearance in Rattus norvegicus Sprague-Dawley (rat) at 9 mg/kg, administered intramuscularly; format: ADME, organism-based; parameters: dose 9 mg/kg, route intramuscular; conditions: in vivo, im
[25] = Tmax in Macaca mulatta (Rhesus monkey) at 50 mg/kg, po; format: ADME, organism-based; parameters: dose 50 mg/kg, route oral; conditions: in vivo
[26] = Cmax in Homo sapiens (human) at 150 mg; format: ADME, organism-based; parameters: dose 150 mg; conditions: in vivo
[27] = Elimination half life in Macaca mulatta (Rhesus monkey) at 50 mg/kg, po; format: ADME, organism-based; parameters: dose 50 mg/kg, route oral; conditions: in vivo, read-out: beta t1/2 (converted)
[28] = Cmax in Rattus norvegicus Sprague-Dawley (rat) at 9 mg/kg, administered intramuscularly; format: ADME, organism-based; parameters: dose 9 mg/kg, route intramuscular; conditions: in vivo, im
[29] = system: Rhesus monkey; experiment: Dose normalized AUC in Macaca mulatta (Rhesus monkey) at 7.5 mg/kg, administered intramuscularly; format: ADME, organism-based; parameters: dose 7.5 mg/kg, route intramuscular; conditions: in vivo, im
[30] = Mean residence time in Macaca mulatta (Rhesus monkey) at 50 mg/kg, po; format: ADME, organism-based; parameters: dose 50 mg/kg, route oral; conditions: in vivo
[31] = system: Rattus norvegicus; experiment: Clearance in Rattus norvegicus Sprague-Dawley (rat) at 17.5 mg/kg, po; format: ADME, organism-based; parameters: dose 17.5 mg/kg, route oral; conditions: in vivo
[32] = system: Rattus norvegicus; experiment: Volume of distribution in Rattus norvegicus Sprague-Dawley (rat) at 30 mg/kg, po; format: ADME, organism-based; parameters: dose 30 mg/kg, route oral; conditions: in vivo
[33] = Tmax in Rattus norvegicus Sprague-Dawley (rat) at 30 mg/kg, po; format: ADME, organism-based; parameters: dose 30 mg/kg, route oral; conditions: in vivo
[34] = system: Rhesus monkey; experiment: Clearance in Macaca mulatta (Rhesus monkey) at 4 mg/kg, iv; format: ADME, organism-based; parameters: dose 4 mg/kg, route intravenous; conditions: in vivo
[35] = Cmax in Rattus norvegicus Sprague-Dawley (rat) at 17.5 mg/kg, po; format: ADME, organism-based; parameters: dose 17.5 mg/kg, route oral; conditions: in vivo
[36] = system: Rattus norvegicus; experiment: AUC (0 to infinity) in Rattus norvegicus Sprague-Dawley (rat) at 2 mg/kg, iv; format: ADME, organism-based, Plasma; parameters: time infinity, dose 2 mg/kg, route intravenous; conditions: in vivo
[37] = Mean residence time in Rattus norvegicus Sprague-Dawley (rat) at 9 mg/kg, administered intramuscularly; format: ADME, organism-based; parameters: dose 9 mg/kg, route intramuscular; conditions: in vivo, im
[38] = system: Rattus norvegicus; experiment: Volume of distribution in Rattus norvegicus Sprague-Dawley (rat) at 17.5 mg/kg, administered intramuscularly; format: ADME, organism-based; parameters: dose 17.5 mg/kg, route intramuscular; conditions: in vivo, im
[39] = system: Rattus norvegicus; experiment: Clearance in Rattus norvegicus Sprague-Dawley (rat) at 17.5 mg/kg, administered intramuscularly; format: ADME, organism-based; parameters: dose 17.5 mg/kg, route intramuscular; conditions: in vivo, im
[40] = Elimination half life in Homo sapiens (human) at 150 mg; format: ADME, organism-based; conditions: in vivo, read-out: beta t1/2 (converted)
[41] = system: Rhesus monkey; experiment: Dose normalized AUC in Macaca mulatta (Rhesus monkey) at 4 mg/kg, iv; format: ADME, organism-based; parameters: dose 4 mg/kg, route intravenous; conditions: in vivo
[42] = system: Rattus norvegicus; experiment: AUC (0 to infinity) in Rattus norvegicus Sprague-Dawley (rat) at 9 mg/kg, po; format: ADME, organism-based, Plasma; parameters: time infinity, dose 9 mg/kg, route oral; conditions: in vivo

CCO[C@@H]1O[C@@H]2O[C@]3(C)CC[C@H]4[C@H](C)CC[C@@H]([C@H]1C)[C@@]24OO3 [ALPHA-ARTEETHER]
AUC/dose [1]: 27.3 ng·h/mL | half-life [2]: 1.7 h | AUC/dose [3]: 219.5 ng·h/mL | Vd [4]: 76.8 L/kg | AUC/dose [5]: 12.4 ng·h/mL | CL [6]: 61.7 mL/min/kg | MRT [7]: 19.6 h | AUC/dose [8]: 392 ng·h/mL | CL [9]: 247 mL/min/kg | Tmax [10]: 0.5 h | MRT [11]: 2 h | AUC/dose [12]: 237.5 ng·h/mL | AUC/dose [13]: 9.7 ng·h/mL | MRT [14]: 1.9 h | Cmax [15]: 96.7 ng/mL | AUC [16]: 754.4 ng·h/mL | CL [17]: 75 mL/min/kg | clearance [18]: 10 mL/min/kg | AUC(0-inf) [19]: 1300 ng·h/mL | AUC/dose [20]: 0.4 ng·h/mL | AUC [21]: 1247.1 ng·h/mL | half-life [22]: 22 h | MRT [23]: 1.8 h | CL [24]: 40 mL/min/kg | Tmax [25]: 0.222 h | Cmax [26]: 60.7 ng/mL | half-life [27]: 2.7 h | Cmax [28]: 52.3 ng/mL | AUC/dose [29]: 285.3 ng·h/mL | MRT [30]: 3.4 h | CL [31]: 1708 mL/min/kg | Vd [32]: 176.5 L/kg | Tmax [33]: 5 min | CL [34]: 26.7 mL/min/kg | Cmax [35]: 37.6 ng/mL | AUC [36]: 131.7 ng·h/mL | MRT [37]: 47.8 h | Vd [38]: 129.3 L/kg | CL [39]: 68.3 mL/min/kg | half-life [40]: 13.2 h | AUC/dose [41]: 628.7 ng·h/mL | AUC [42]: 73.8 ng·h/mL
